System: GluR6 glutamate receptor
Test: Laser-pulse photolysis of DECM-caged glutamate on HEK 293 cells
Assay type: cell-based
Conditions: 2 mM caged compound, −60 mV, pH 7.4, 22° C.
Procedure: The cells were used for electrophysiological experiments between 24 and 72 h after each passage. Whole-cell currents evoked by glutamate or glycine (100 μM) were recorded using the whole-cell configuration (Hamill et al., “Improved Patch-Clamp Techniques for High-Resolution Current Recording From Cells and Cell-Free Membrane Patches,” Pfluegers Arch 391:85-100 (1981), which is hereby incorporated by reference in its entirety) at room temperature, −60 mV, and pH 7.4. The experiments using DECM-caged glutamate were carried out in the absence or presence of 2 mM DECM-caged glutamate (FIG. 5A) or 1 mM 7-N,N-diethylamino-4-hydroxymethylcoumarin (2) (FIG. 5B). Alternatively, the experiments using DECM-caged glycine were carried out in the absence or presence of 1 mM DECM-caged-glycine (FIG. 10). The solution in the recording pipet contained 120 mM CsCl, 10 mM EGTA, and 10 mM HEPES, adjusted to pH 7.4. The HEK cell bath solution contained 150 mM NaCl, 1 mM CaCl2, 10 mM HEPES, pH 7.4. The resistance of the recording electrode filled with buffer solution was typically 3-5 MΩ and the series resistance was 5-6 MΩ. […]
The laser light produced by the Exalite (Exiton Inc., Dayton, Ohio) 404 dye (≧400 nm) was coupled into an optical fiber (300 μm internal diameter), which delivered the light to the cell. […] Data were analyzed with Microcal Origin3.5 software (Microcal, Northampton, Mass.).

CCN(CC)c1ccc2c(COC(=O)CCC(N)C(=O)O)cc(=O)oc2c1 (centres unmarked) [DECM-caged glutamate, (7-N,N-Diethylaminocoumarin-4-yl)-methyl-glutamate-trifluoroacetate]
I∞, current at t=∞: −1590 pA | kobs, apparent pseudo-first-order rate constant of the current rise: 765 ± 14 s⁻¹

Reference: patent publication US8053585B2, “Protecting group for carboxylic acids that can be photolyzed by visible light” (Cornell Research Foundation, Inc., priority 2006, dated 2011)
